For this assay, the system named is E. coli ATCC 10536. Put plainly: BCT test (bacterial contact time), 45 s, log reduction / effect fraction; CI by Compusyn. The format is cell-based, Escherichia coli. The following applies: for log reduction at […] strength: dose […] w/v. Here is the method: E. coli, S. aureus, P. aeruginosa, and S. enterica: Separate suspensions of the E. coli ATCC 10536 strain, S. aureus ATCC 6538 strain, Pseudomonas aeruginosa ATCC 15442 strain, and the Salmonella enterica ATCC 10708 strain were prepared as follows: Stock cultures (stored at −80° C.) were thawed and sub-cultured onto Tryptic Soy Agar (TSA) agar plate media, and incubated at 37° C. for 24 h to obtain single colonies. Single colonies of the primary cultures were streaked onto TSA plates and incubated at 37° for 24 h to generate secondary cultures. Single colonies of secondary cultures picked and used to inoculate into 50 mL of TSB broth. The inoculated TSB broth was incubated at 37° C. at 180 rpm for 18 h. Aliquots (0.5 ml) of the 18 h culture were inoculated into 50 ml of fresh TSB broth, and incubated at 37° C. at 180 rpm for 2-3 hours. When the OD600 nm value of the broth reached 1-2, cells were harvested by centrifugation at 5000 rpm for 10 min, and then resuspended in fresh TSB broth at a concentration of 1-5×10^8 CFU/mL. These suspensions were used as the bacterial suspensions for the BCT test.
BCT Test: Test compositions at a range of concentrations (either combinations of more than one perfume ingredient, and comparative compositions comprising the single perfume ingredients) were prepared in ethanol. Five replicates of each test composition were added into 96-well microtiter plates (120 μl per well), with row B containing control compositions containing the ethanol solution alone. 120 μl of bacterial cell suspensions at a concentration of approximately 1×10^8 bacteria per mL (as prepared above) were added to each well of the microtiter plate. The bacterial suspensions were incubated with the test solutions for 45, 60, or 120 seconds. Following the incubation of the bacterial suspensions with the test solutions, serial dilutions of the bacterial suspensions were generated (three serial 1:10 dilutions, followed by 17 serial 1:2 dilutions), in multiwell microtiter plates.
Each plate was sealed and incubated at 37° C. under agitation (180 rpm). After incubation, the turbidity of the wells (OD600 nm) was determined using a Tecan microplate reader. Turbid wells were regarded as positive growth, due to the presence of viable cells. The total number of viable cells (log CFU) for each sample was calculated. And the log reduction for each test composition at the final concentration (dose) was calculated against the control sample of the ethanol solution.
Determination of Synergy via the Combination Index (CI): The CI was calculated using Compusyn software (ComboSyn, Inc., as created by Dr. Dorothy Chou in 2005), according to the manufacturer's instructions. The concentration of each test composition (combinations of more than one perfume ingredient, and comparative compositions comprising the single perfume ingredients used to generate the combination) and their corresponding effect fraction was entered, and the corresponding CI calculated.
When the calculated CI values were less than 0.9, the combination of perfume ingredients was regarded as having synergistic effect. When the calculated CI was between 1.0 a 0.9, the combination of perfume ingredients was regarded as having an additive effect. When the calculated CI was greater than 1.0, the combination of perfume ingredients was regarded as having an antagonistic effect.

The mark [1] stands for this setting: Escherichia coli, ATCC10536, 45 s, dose 0.050 % w/v, 45 s, in 20% EtOH.
The mark [2] stands for this setting: Escherichia coli, ATCC10536, 45 s, dose 0.05% w/v, contact 45 s, 20% EtOH.
Setting [3] is: Escherichia coli, ATCC10536, 45 s, dose 0.060 % w/v, 45 s, in 20% EtOH.
[4] abbreviates: Escherichia coli, ATCC10536, 45 s, dose 0.06% w/v, contact 45 s, 20% EtOH.
Setting [5] is: Escherichia coli, ATCC10536, 45 s, dose 0.070 % w/v, 45 s, in 20% EtOH.
[6] abbreviates: Escherichia coli, ATCC10536, 45 s, dose 0.07% w/v, contact 45 s, 20% EtOH.
[7] abbreviates: Escherichia coli, ATCC10536, 45 s, dose 0.080 % w/v, 45 s, in 20% EtOH.
The mark [8] stands for this setting: Escherichia coli, ATCC10536, 45 s, dose 0.08% w/v, contact 45 s, 20% EtOH.
[9] abbreviates: Escherichia coli, ATCC10536, 45 s, dose 0.090 % w/v, 45 s, in 20% EtOH.
[10] abbreviates: Escherichia coli, ATCC10536, 45 s, dose 0.09% w/v, contact 45 s, 20% EtOH.
Where [11] appears, read: Escherichia coli, ATCC10536, 45 s, dose 0.1% w/v, contact 45 s, 20% EtOH, read-out: Log reduction.
[12] abbreviates: Escherichia coli, ATCC10536, 45 s, dose 0.03% w/v, contact 45 s, 20% EtOH.
[13] abbreviates: Escherichia coli, ATCC10536, 45 s, dose 0.035% w/v, contact 45 s, 20% EtOH.
[14] abbreviates: Escherichia coli, ATCC10536, 45 s, dose 0.04% w/v, contact 45 s, 20% EtOH.

Molecules are shown by their SMILES. Like-named read-outs stand apart in the source and are kept apart here.

Turning to `CCCCCCC1CCC(=O)O1` (stereo not shown) [Decal], the log reduction at 0.05 % strength turned out to be 0.1 under setting [1] and 0 under setting [2]. Further, the log reduction at 0.06 % strength reads like this: under setting [3], 0.7; under setting [4], 0.9. In addition, the log reduction at 0.07 % strength is, setting by setting: under setting [5], 2.4; under setting [6], 2.8. Besides, the log reduction at 0.08 % strength under setting [7] is 6.4 and the log reduction at 0.08 % strength under setting [8] came out at 6.1. Moreover, the log reduction at 0.09 % strength by setting is: under setting [9], 7.1; under setting [10], 7.3. In addition, the Log reduction (dose 0.050 % w/v, 45 s, in 20% EtOH) stood at 0.1.

Consider `OC/C=C/c1ccccc1` [Cinnamic alcohol, (2E)-3-phenyl-2-propen-1-ol], for which the log reduction at 0.2 % strength (Escherichia coli, ATCC10536, 45 s, dose 0.200 % w/v, 45 s, in 20% EtOH) is 0.1. Also, the log reduction at 0.25 % strength (Escherichia coli, ATCC10536, 45 s, dose 0.250 % w/v, 45 s, in 20% EtOH) stood at 0.6. In addition, where the note is “Escherichia coli, ATCC10536, 45 s, dose 0.300 % w/v, 45 s, in 20% EtOH”, the log reduction at 0.3 % strength stood at 1.4. Also, for the setting “Escherichia coli, ATCC10536, 45 s, dose 0.350 % w/v, 45 s, in 20% EtOH”, the log reduction at 0.35 % strength amounted to 4.2. The log reduction at 0.4 % strength (Escherichia coli, ATCC10536, 45 s, dose 0.400 % w/v, 45 s, in 20% EtOH) was determined as 7.3.

`CC(C)=CCC/C(C)=C/CO` [Geraniol Pur]: the log reduction at 0.04 % strength (Escherichia coli, ATCC10536, 45 s, dose 0.040 % w/v, 45 s, in 20% EtOH) was found to be 0.4. For the same compound, the log reduction at 0.05 % strength under setting [1] is 1.9. Under setting [3], the log reduction at 0.06 % strength came out at 6.4. Besides, under setting [5], the log reduction at 0.07 % strength was found to be 7.4. Further, under setting [7], the log reduction at 0.08 % strength was determined as 7.4.

With `CC(C=O)Cc1ccc2c(c1)OCO2` (stereo not shown) [Heliopropanal, 3-(1,3-Benzodioxol-5-yl)-2-methylpropanal], the log reduction at 0.1 % strength reads like this: (Escherichia coli, ATCC10536, 45 s, dose 0.100 % w/v, 45 s, in 20% EtOH) 1; (Escherichia coli, ATCC10536, 45 s, dose 0.1% w/v, contact 45 s, 20% EtOH) 0.5. In addition, the log reduction at 0.12 % strength was 2.1 (Escherichia coli, ATCC10536, 45 s, dose 0.120 % w/v, 45 s, in 20% EtOH) and 1.1 (Escherichia coli, ATCC10536, 45 s, dose 0.12% w/v, contact 45 s, 20% EtOH). The log reduction at 0.14 % strength reads like this: (Escherichia coli, ATCC10536, 45 s, dose 0.140 % w/v, 45 s, in 20% EtOH) 4.3; (Escherichia coli, ATCC10536, 45 s, dose 0.14% w/v, contact 45 s, 20% EtOH) 3.1. For the same compound, the log reduction at 0.16 % strength (Escherichia coli, ATCC10536, 45 s, dose 0.160 % w/v, 45 s, in 20% EtOH) came out at 7.3 and the log reduction at 0.16 % strength (Escherichia coli, ATCC10536, 45 s, dose 0.16% w/v, contact 45 s, 20% EtOH) came to 7. Also, the log reduction at […] strength was 7.3 (Escherichia coli, ATCC10536, 45 s, 45 s, in 20% EtOH) and 7.4 (Escherichia coli, ATCC10536, 45 s, contact 45 s, 20% EtOH).

As to `C=CCc1ccc(O)c(OC)c1` [Eugenol F, 2-Methoxy-4-(prop-2-en-1-yl)phenol], the log reduction at 0.075 % strength (Escherichia coli, ATCC10536, 45 s, dose 0.075 % w/v, 45 s, in 20% EtOH) turned out to be 0. Under setting [9], the log reduction at 0.09 % strength was determined as 0.3. The log reduction at 0.1 % strength (Escherichia coli, ATCC10536, 45 s, dose 0.100 % w/v, 45 s, in 20% EtOH, read-out: Log reduction) amounted to 0.9. Moreover, the log reduction at 0.125 % strength (Escherichia coli, ATCC10536, 45 s, dose 0.125 % w/v, 45 s, in 20% EtOH) stood at 2.5. Further, the log reduction at 0.15 % strength (Escherichia coli, ATCC10536, 45 s, dose 0.150 % w/v, 45 s, in 20% EtOH) stood at 7.4.

With `C=C(C)[C@@H]1CC=C(CO)CC1` [Perycorolle, (S)-(−)-(4-Isopropenyl-1-cyclohexenyl)methanol], the log reduction at 0.05 % strength under setting [2] worked out at 0. Also, the log reduction at 0.07 % strength under setting [6] turned out to be 1.2. Besides, under setting [8], the log reduction at 0.08 % strength was 3.7. Further, the log reduction at 0.09 % strength under setting [10] is 6. Besides, the log reduction at 0.1 % strength under setting [11] was found to be 7.4.

With `CC(C)=CCC/C(C)=C\CO` [Nerol, (Z)-3,7-dimethyl-2,6-octadien-1-ol], the log reduction at 0.05 % strength came to 1.1 under setting [1] and 0.1 under setting [2]. Besides, the log reduction at 0.06 % strength under setting [3] stood at 3.2 and the log reduction at 0.06 % strength under setting [4] was determined as 3.2. Besides, the log reduction at 0.07 % strength reads like this: under setting [5], 6.7; under setting [6], 7. Further, the log reduction at 0.08 % strength is, setting by setting: under setting [7], 7.3; under setting [8], 7.4. For the same compound, the log reduction at 0.09 % strength is 7.3 under setting [9] and 7.4 under setting [10].

Regarding `C/C=C/c1ccc(O)c(OC)c1` [Isoeugenol, 2-Methoxy-4-(prop-1-en-1-yl)phenol], under setting [2], the log reduction at 0.05 % strength was found to be 0.1. The log reduction at 0.07 % strength under setting [6] amounted to 0.8. Besides, the log reduction at 0.09 % strength under setting [10] amounted to 2.9. For the same compound, the log reduction at 0.1 % strength under setting [11] is 4.9. For the setting “Escherichia coli, ATCC10536, 45 s, dose 0.12% w/v, contact 45 s, 20% EtOH, read-out: Log reduction”, the log reduction at 0.12 % strength was found to be 7.4.

As to `CCC(C)(O)CCCC(C)C` (stereo not shown) [Tetralinol, 3,7-Dimethyl-3-octanol], the log reduction at 0.02 % strength (Escherichia coli, ATCC10536, 45 s, dose 0.02 % w/v, 45 s, in 20% EtOH) came out at 0.1. Moreover, the log reduction at 0.025 % strength by setting is: (Escherichia coli, ATCC10536, 45 s, dose 0.025 % w/v, 45 s, in 20% EtOH) 0.6; (Escherichia coli, ATCC10536, 45 s, dose 0.025% w/v, contact 45 s, 20% EtOH) 0.7. The log reduction at 0.03 % strength is, setting by setting: (Escherichia coli, ATCC10536, 45 s, dose 0.030 % w/v, 45 s, in 20% EtOH) 1.4; under setting [12], 2. Further, the log reduction at 0.035 % strength reads like this: (Escherichia coli, ATCC10536, 45 s, dose 0.035 % w/v, 45 s, in 20% EtOH) 5; under setting [13], 5.9. Also, the log reduction at 0.04 % strength under setting [14] was found to be 7. The Log reduction (dose 0.025 % w/v, 45 s, in 20% EtOH) worked out at 0.6.

On to `CC(CCO)CCc1ccccc1` (stereo not shown) [Phenylhexanol, 3-methyl-5-phenyl-1-pentanol], for which the log reduction at 0.02 % strength (Escherichia coli, ATCC10536, 45 s, dose 0.02% w/v, contact 45 s, 20% EtOH) was 0. Also, the log reduction at 0.03 % strength under setting [12] was determined as 0. Also, under setting [13], the log reduction at 0.035 % strength amounted to 1.1. For the same compound, under setting [14], the log reduction at 0.04 % strength turned out to be 2.4. Under setting [2], the log reduction at 0.05 % strength turned out to be 7.2.

The values above are taken from patent publication US12419305B2, “Antimicrobial compositions” (Firmenich SA, priority 2018, dated 2025).
